Source: patent US6894050B2, “5-HT receptor ligands and uses thereof” (Pfizer Inc., priority 2001, dated 2005)
Where a name gives a salt, the structure may show the parent alone.

Experiments:
human 5HT2c receptor = biological target: T1, human 5HT2c receptor (Homo sapiens, UniProt P28335); test: 5HT2c Binding Procedure (competition binding against 3H-5HT); settings: Swiss 3T3 mouse cells transfected with human 5HT2c receptor
T1 construct: expressed in transfected cells; host or cells: Swiss 3T3 mouse cells
T1 sequence (P28335 33-458): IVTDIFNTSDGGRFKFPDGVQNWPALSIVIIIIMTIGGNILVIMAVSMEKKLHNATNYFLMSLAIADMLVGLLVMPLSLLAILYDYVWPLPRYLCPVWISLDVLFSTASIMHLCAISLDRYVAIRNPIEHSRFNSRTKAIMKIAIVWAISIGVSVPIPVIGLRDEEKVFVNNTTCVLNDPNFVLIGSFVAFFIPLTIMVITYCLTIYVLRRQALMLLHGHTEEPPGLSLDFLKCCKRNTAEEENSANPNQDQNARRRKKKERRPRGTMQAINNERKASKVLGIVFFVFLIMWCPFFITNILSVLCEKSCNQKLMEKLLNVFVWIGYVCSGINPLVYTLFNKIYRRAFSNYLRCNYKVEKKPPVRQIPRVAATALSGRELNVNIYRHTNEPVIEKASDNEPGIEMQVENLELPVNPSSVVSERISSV
Procedure: Affinity of compounds at the serotonin 5HT2c binding site was determined by competition binding in Swiss 3T3 mouse cells (available from the American Type Culture Collection (ATCC), Manassas, Va.) transfected with the human 5HT2c receptor against 3H-5HT. The method was adapted from Roth et al., J. of Pharm. And Exp. Therap., 260(3), 1362-1365 (1992). Cells were grown in DMEM high glucose medium, harvested, homogenized, centrifuged, and resuspended in 50 mM Tris-HCL. They were incubated at 37° C. for 15 minutes, centrifuged, and then resuspended into assay buffer (50 mM Tris-HCl, 4 mM CaCl2, 0.1% ascorbic acid, and 100 μM pargyline at pH 7.7) at 100 volumes per gram. Assay tubes contained 25 μL of 10 nM ^3H-5HT (1 nM final conc.), and 25 μl of vehicle (assay buffer), blank (10 μM mianserin), or test compound (10× final volume). 200 μl of tissue homogenate was added to each tube, vortexed, and incubated for 30 minutes at 37° C. Samples were then rapidly filtered under vacuum with a Skatron™ cell harvester (available from Molecular Devices Corporation, Sunnyvale, Calif.) using GF/B filters presoaked in 0.5% polyethyleneimine (PEI), and washed with 2×5 mL cold 50 mM Tris-HCl. Filter mats were removed and counted in a Wallac Betaplate counter (available from PerkinElmer Life Sciences, Gaithersburg, Md.). […]

conscious male rat = test: Intracavernosal pressure (ICP) by telemetric recording in the conscious male rat; type: in vivo
From the text: ICP Protocol: Intra cavernosal pressure (ICP) can be measured in the conscious rat by means of telemetric recording. A catheter is surgically implanted into the corpus cavernosum. The end of the catheter is linked to a device, which senses, processes, and transmits information digitally from within the animal. A receiver converts the radio-frequency signal from the implant to a digital pulse stream that is readable by a data collection system. The PC-based system collects telemetred data from the animal.
Surgery:—Induce and maintain general anaesthesia using 5% Isoflurane® in a carrier gas of 0.5 L/min oxygen and 1 L/min nitrous oxide to induce anaesthesia, reducing to 2% Isoflurane for maintenance anaesthesia. Administer 5 mg/kg subcutaneously (s.c.) Carprofen (Rimadyl® Large Animal Injection, 50 mg/ml, Pfizer Animal Health) at induction of anaesthesia, at end of day of surgery and on the morning of first day post-surgery to minimise pain and discomfort.
Implantation of corpus cavernosal probe:—Shave the skin of the ventral abdomen and extend to include the area around the penis and ventral scrotum. Clean and disinfect the shaved area. Place the rat in dorsal recumbency. Make a mid-line incision from the external base of the penis, running caudally for approximately 2 cm. Locate and expose the internal structure of the penis and identify the corpus cavernosum. Make a mid-line laparotomy, approximately 4 cm in length to access the abdominal cavity. Pierce the abdominal wall via the caudal incision with a suitable trocar and cannula, taking care not to damage any internal organs. Place the implant body in the abdominal cavity with the catheter orientated caudally and pass the catheter tip through the body wall via the preplaced cannula. Implant used is model TA11PA-C40, 8 mm catheter, with modified 3 mm tip (Data Sciences International Inc.). Secure the implant body to the abdominal wall using non-absorbable sutures and partially close the abdominal incision. Reflect the tip of the penis cranially and retract the caudal incision to optimise the surgical field. Carefully isolate approximately 10 mm of the internal structure of the penis from the surrounding tissue. Carefully reflect the corpus spongiosum to one side to give access to the corpus cavernosum. Access the corpus cavernosum using a modified over-the-needle catheter to puncture the tunica. Introduce the catheter tip via the preplaced catheter and advance until fully inserted. Carefully remove the access catheter and apply a suitable tissue adhesive to the insertion site. Observe for leakage. Close the subcutaneous fat layer in the caudal incision before closing with an appropriate absorbable suture. Instil approximately 5 ml of warm saline through the abdominal incision and complete closure of the mid-line incision. Close the skin incision with an appropriate absorbable suture.
Postoperative care:—Measure food and water intake and monitor bodyweight daily for at least 7 days post surgery, then 2-3 times weekly. Give Lectade® (Pfizer Animal Health) in drinking water for 3 days post surgery. House rats singly, and transfer to reverse light/dark conditions 5 days post surgery. Named Veterinary Surgeon (or Deputy) to issue a certificate of fitness to continue 2 days post surgery. Start using rats experimentally 7 days post surgery.
Experimental Procedure:—Perform experiment in room with reverse light/dark conditions. […] Take baseline reading of intra cavernosal pressure (ICP) for approximately 5 minutes. […]

[1] = system: anaesthetised rabbit model of erection; test: Penile ICP in anaesthetised rabbit model of erection, combination with PDE5 inhibitor; type: in vivo; settings: 5-10 mg/kg s.c. with selective PDE5 inhibitor 1 mg/kg i.v.
Procedure: The effects of concomitant administration of compound(s) of formula (I) in combination with a PDE5 inhibitor on the penile intracavernosal pressure (ICP) in an anaesthetised rabbit model of erection can be measured according to the following protocol.
Male New Zealand rabbits (˜2.5 kg) are pre-medicated with a combination of Medetomidine (Domitor®) 0.5 ml/kg inramuscularly (i.m.), and Ketamine (Vetalar®) 0.25 ml/kg i.m. whilst maintaining oxygen intake via a face mask. The rabbits are tracheotomised using a Portex™ uncuffed endotracheal tube 3 ID (internal diameter), connected to ventilator and maintained at a ventilation rate of 30-40 breaths per minute, with an approximate tidal volume of 18-20 ml, and a maximum airway pressure of 10 cm H2O. Anaesthesia was then switched to Isoflurane® and ventilation continued with O2 at 2 liters/min. The right marginal ear vein was cannulated using a 23G or 24G catheter, and Lactated Ringer solution perfused at 0.5 ml/min. […]
The left groin area of the rabbit was shaved and a vertical incision was made approximately 5 cm in length along the thigh. […] Systolic and diastolic pressures were measured, and the mean arterial pressure calculated using the formula (diastolic×2+systolic)÷3. Heart rate was measured via the pulse oxymeter and Po-ne-mah data acquisition software system (Ponemah Physiology Platform, Gould Instrument Systems Inc). […]

rat 5HT2A receptor = biological target: T2, rat 5HT2A receptor (Rattus norvegicus, UniProt P14842); test: 5HT2A Binding Procedure (competition binding using 125I-DOI); settings: NIH 3T3 mouse cells transfected with rat 5HT2A receptor, read-out: Ki values for 5HT2a binding (upper end of range)
T2 construct: expressed in transfected cells; host or cells: NIH 3T3 mouse cells
Procedure: Affinity of compounds at the serotonin 5HT2A binding site was determined by competition binding in NIH 3T3 mouse cells transfected with the rat 5HT2A receptor using 125I-DOI. The method was adapted from Leonhardt et al., Molecular Pharmacology, 42, 328-335 (1992). Frozen cell paste was homgenized in 50 mM tris-HCl buffer pH 7.4 containing 2 mM MgCl2 using a Polytron and centrifuged at 45000×g for ten minutes. The resulting pellet was resuspended in fresh ice-cold 50 mM tris-HCl buffer pH 7.4 containing 2 mM MgCl2 using a Polytron™ and centrifuged again at 45000×g for ten minutes. The final pellet was resuspended in 50 mM tris-HCl buffer pH 7.4 containing 2 mM MgCl2 at a concentraion of 5 mg/mL. Wells in a 96 well plate contained 25 μL of 0.7 nM 125I-DOI (70 pM final conc.), and 25 μL of vehicle (assay buffer), blank (10 μM cinanserin), or test compound (10× final volume). […] Filter mats were removed, dried and counted in a Wallac Betaplate counter. Concentration-response curves of the % inhibition of specific binding and log concentration by test compounds were used to determine the IC50 for each compound and the Ki value calculated based on the Cheng-Prusof equation (Ki=IC50/(1+(L/Kd)), where L is the concentration of the radioligand used in the binding assay and the Kd was based on previous saturation studies with the radioligand.

T2 sequence (P14842 whole entry): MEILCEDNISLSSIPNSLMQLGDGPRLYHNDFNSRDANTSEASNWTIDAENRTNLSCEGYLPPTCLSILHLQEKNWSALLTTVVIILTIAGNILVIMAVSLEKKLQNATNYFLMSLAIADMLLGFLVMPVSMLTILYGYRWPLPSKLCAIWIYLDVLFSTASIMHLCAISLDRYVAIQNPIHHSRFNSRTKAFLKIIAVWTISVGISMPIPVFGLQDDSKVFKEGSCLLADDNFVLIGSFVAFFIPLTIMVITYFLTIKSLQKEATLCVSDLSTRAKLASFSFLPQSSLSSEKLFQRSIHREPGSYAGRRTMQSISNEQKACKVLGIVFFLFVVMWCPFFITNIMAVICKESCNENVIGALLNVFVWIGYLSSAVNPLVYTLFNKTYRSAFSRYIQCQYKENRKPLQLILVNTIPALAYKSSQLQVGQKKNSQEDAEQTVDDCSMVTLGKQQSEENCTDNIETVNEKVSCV

In the case of `c1ccc(COc2cncc(N3CCNCC3)n2)nc1` [Example 1-AW, 6′-(Pyridin-2-ylmethoxy)-3,4,5,6-tetrahydro-2H-[1,2′]bipyrazinyl hydrochloride salt], the Ki (human 5HT2c receptor) is reported as 586 nM.

In the case of `Fc1ccc(F)c(COc2cncc(N3CCNCC3)n2)c1` [Example 1-M, 6′-(2,5-Difluoro-benzyloxy)-3,4,5,6-tetrahydro-2H-[1,2′]bipyrazinyl], the “number of erectogenic events in a 15 minute test period” value (conscious male rat; 5 mg/kg s.c.) is reported as “significantly increased”, the “number of erectogenic events induced at 120 minutes after dosing” value (conscious male rat; 120 minutes after dosing) is reported as “no difference” and the “proerectile effects in the conscious rat” value (conscious male rat; conscious rat) is reported as “induced proerectile effects”. The “Number of erectogenic events @ 60 min” value (conscious male rat; conscious rat, 5 mg/kg s.c., 15 minute period, 60 min post injection) was 1.5 ± 0.3, the “Number of erectogenic events @ 120 min” value (conscious male rat; conscious rat, 5 mg/kg s.c., 15 minute period, 120 min post injection) was 1.3 ± 0.5 and the “effects on ICP of concomitant administration with PDE5 inhibitor” value [1] was “beneficial effects on ICP”.

Compound `Cc1cccc(CNc2cncc(N3CCNCC3)n2)n1` [Example 4-R, (6-Methyl-pyridin-2-ylmethyl)-(3,4,5,6-tetrahydro-2H-[1,2′]bipyrazinyl-6′-yl)-amine fumarate salt] has a Ki (rat 5HT2A receptor) of 1000 nM.
